Earlier results, collected in patent US20190160050A1, “SMALL MOLECULE INHIBITION FOR PREVENTING OR TREATING FIBROTIC DISEASES” (THE REGENTS OF THE UNIVERSITY OF CALIFORNIA, priority 2016, published 2019).

What was measured:
JNK = conditions: read-out: IC50 as competitive inhibitor of JNK
Akt/PKB = conditions: read-out: IC50 (Akt/PKB inhibitor)
Lck = Lck (Homo sapiens, UniProt P06239)
[1] = target: vascular endothelial growth factor receptor 2 (Homo sapiens, UniProt P35968)
c-fms = c-fms (Homo sapiens, UniProt P07333); conditions: read-out: IC50 for c-fms tyrosine kinase
Src = Src (Homo sapiens, UniProt P12931)
Src, sequence (P12931 whole entry, species assumed): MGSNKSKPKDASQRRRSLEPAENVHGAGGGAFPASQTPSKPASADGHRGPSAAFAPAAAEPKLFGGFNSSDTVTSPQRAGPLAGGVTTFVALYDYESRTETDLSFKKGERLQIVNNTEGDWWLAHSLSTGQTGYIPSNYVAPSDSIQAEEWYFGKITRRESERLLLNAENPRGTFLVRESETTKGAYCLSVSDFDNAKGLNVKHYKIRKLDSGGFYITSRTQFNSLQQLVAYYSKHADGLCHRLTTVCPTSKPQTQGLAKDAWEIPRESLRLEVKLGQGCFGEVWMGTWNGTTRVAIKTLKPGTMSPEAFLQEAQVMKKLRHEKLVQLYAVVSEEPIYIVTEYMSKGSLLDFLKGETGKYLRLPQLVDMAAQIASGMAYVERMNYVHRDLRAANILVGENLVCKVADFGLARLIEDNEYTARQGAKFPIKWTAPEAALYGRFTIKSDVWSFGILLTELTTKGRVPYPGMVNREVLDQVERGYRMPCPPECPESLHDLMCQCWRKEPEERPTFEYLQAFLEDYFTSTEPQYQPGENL

c-fms, sequence (P07333 20-972): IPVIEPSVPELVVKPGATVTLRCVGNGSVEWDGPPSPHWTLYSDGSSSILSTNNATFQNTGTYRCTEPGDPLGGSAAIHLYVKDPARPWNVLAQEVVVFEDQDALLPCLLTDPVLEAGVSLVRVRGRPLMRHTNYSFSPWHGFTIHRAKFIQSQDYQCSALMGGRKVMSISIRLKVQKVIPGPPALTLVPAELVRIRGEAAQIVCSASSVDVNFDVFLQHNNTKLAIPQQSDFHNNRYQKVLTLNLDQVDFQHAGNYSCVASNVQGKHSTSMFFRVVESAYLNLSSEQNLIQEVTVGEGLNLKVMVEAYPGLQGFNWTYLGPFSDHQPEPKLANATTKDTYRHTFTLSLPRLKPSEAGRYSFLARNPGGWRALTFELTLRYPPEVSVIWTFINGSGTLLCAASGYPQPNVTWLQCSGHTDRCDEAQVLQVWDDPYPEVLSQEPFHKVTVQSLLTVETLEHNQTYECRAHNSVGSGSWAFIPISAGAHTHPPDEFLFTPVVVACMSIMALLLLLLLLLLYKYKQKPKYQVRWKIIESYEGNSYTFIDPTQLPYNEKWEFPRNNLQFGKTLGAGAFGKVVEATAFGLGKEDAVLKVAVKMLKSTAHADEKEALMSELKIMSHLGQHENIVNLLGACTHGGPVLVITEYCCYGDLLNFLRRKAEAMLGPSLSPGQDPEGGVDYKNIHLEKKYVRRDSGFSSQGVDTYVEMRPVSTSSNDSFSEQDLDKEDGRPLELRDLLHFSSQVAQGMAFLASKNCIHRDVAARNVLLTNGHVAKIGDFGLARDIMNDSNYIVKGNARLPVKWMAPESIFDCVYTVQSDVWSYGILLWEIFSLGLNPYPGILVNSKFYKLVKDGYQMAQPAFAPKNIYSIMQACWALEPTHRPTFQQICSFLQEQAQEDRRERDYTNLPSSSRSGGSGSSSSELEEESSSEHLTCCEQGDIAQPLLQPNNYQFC
vascular endothelial growth factor receptor 2, sequence (P35968 20-1356, species assumed): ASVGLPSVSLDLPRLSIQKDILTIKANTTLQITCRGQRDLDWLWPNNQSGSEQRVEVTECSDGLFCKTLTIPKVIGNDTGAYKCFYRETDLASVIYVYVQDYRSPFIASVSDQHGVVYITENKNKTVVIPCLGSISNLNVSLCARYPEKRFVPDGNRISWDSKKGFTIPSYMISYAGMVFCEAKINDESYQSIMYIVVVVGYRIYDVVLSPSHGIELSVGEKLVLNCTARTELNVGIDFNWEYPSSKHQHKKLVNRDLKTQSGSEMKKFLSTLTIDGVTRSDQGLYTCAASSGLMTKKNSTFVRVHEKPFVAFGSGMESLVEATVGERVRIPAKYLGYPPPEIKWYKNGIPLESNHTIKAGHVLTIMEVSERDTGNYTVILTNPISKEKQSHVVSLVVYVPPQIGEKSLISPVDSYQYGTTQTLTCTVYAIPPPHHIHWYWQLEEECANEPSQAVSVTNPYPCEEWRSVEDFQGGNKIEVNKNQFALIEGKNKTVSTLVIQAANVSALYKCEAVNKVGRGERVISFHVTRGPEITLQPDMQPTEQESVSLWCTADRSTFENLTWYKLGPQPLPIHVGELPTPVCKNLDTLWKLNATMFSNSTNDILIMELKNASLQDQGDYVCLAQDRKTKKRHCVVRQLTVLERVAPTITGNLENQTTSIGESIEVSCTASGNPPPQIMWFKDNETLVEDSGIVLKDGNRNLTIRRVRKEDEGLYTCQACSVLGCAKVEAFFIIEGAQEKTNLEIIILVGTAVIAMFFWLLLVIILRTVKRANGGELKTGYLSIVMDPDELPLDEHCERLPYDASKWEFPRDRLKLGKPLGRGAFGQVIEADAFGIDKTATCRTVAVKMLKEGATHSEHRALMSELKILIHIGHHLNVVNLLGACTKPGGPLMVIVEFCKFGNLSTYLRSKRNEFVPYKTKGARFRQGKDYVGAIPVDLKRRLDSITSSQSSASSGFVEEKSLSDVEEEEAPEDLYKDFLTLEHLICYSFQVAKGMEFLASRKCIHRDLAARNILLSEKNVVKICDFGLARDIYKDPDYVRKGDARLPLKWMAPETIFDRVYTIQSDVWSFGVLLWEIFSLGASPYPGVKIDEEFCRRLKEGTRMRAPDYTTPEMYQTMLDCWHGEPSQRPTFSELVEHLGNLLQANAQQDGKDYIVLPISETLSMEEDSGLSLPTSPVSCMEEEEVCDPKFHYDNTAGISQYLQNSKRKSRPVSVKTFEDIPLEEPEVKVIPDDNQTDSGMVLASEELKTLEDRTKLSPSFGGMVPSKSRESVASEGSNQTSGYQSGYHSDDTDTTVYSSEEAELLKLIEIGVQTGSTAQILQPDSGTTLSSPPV
Lck, sequence (P06239 whole entry, species assumed): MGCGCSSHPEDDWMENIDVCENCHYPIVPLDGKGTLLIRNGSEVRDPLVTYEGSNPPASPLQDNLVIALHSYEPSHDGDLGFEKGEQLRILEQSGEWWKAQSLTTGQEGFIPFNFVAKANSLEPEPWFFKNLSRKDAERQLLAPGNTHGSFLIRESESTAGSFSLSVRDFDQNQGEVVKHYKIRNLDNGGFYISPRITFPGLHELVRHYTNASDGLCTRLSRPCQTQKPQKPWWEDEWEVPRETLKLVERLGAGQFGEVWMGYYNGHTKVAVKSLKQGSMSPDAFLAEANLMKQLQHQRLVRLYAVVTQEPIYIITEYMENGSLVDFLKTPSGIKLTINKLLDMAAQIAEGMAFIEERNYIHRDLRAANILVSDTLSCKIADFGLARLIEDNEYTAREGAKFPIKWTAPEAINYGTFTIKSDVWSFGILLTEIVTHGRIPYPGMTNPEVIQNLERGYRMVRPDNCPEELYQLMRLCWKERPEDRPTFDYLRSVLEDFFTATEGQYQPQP

Structure (SMILES): O=c1[nH]nc(Sc2ncc([N+](=O)[O-])s2)n1-c1ccc2c(c1)OCCO2 [BI 78D3, 4-(2,3-dihydro-1,4-benzodioxin-6-yl)-2,4-dihydro-5-[(5-nitro-2-thiazolyl)thio]-3H-1,2,4-triazol-3-one]
- IC50 (JNK): 280 nM

Structure (SMILES): NC(=S)N/N=C/c1coc2ccccc2c1=O.[Cl][Cu][Cl] [FPA 124]
- IC50 (Akt/PKB): 100 nM

Structure (SMILES): COc1cc2ncnc(Nc3ccc(Oc4ccccc4)cc3)c2cc1OC [Src Inhibitor-1, 4-(4′-Phenoxyanilino)-6,7-dimethoxyquinazoline, 6,7-Dimethoxy-N-(4-phenoxyphenyl)-4-quinazolinamine]
- IC50 (Lck): 88 nM
- IC50 [1]: 320 nM
- IC50 (c-fms): 30000 nM
- IC50 (Src): 44 nM
